Patent publication US9604996B2 (Bayer Pharma Aktiengesellschaft, priority 2013, dated 2017)

Target: T1, human adenosine A2b receptor (Homo sapiens, UniProt P29275)
T1 construct: expressed in transfected cells; host or cells: CHO-K1 (Chinese Hamster Ovary) with CRE-luciferase reporter
T1 sequence (P29275 1-332): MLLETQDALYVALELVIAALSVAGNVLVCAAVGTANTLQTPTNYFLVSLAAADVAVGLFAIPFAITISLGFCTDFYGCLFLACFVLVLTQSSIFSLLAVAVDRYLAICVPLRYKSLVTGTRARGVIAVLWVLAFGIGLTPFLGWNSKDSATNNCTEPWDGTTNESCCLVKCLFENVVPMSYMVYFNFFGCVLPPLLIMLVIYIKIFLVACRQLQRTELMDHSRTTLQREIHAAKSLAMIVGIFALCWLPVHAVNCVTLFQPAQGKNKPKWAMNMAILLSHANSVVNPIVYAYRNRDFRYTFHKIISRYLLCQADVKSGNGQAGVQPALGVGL
Test: Cellular reporter gene (CRE-luciferase) A2b receptor antagonist assay in recombinant CHO-K1 cells stimulated with NECA
Format: cell-based
Conditions: recombinant CHO-K1 cell line, co-incubation with EC50 concentration of NECA, 3 hours, in some cases means, rounded to two significant digits
Method in brief: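 CHO-K1 cells expressing human A2b receptor with a CRE-driven firefly luciferase reporter, co-incubated with test compound and NECA at its same-day EC50 concentration. Luminescence read 3 hours after NECA addition.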

| Structure (SMILES) | IC50 [nM] |
| --- | --- |
| Cc1c(C(=O)N2CCC(O)CC2)sc2c1c(=O)n(CC(F)c1ccccc1)c(=O)n2CCC(F)(F)F (single isomer, unassigned) [Example 102, 3-(2-Fluoro-2-phenylethyl)-6-[(4-hydroxypiperidin-1-yl)carbonyl]-5-methyl-1-(3,3,3-trifluoropropyl)thieno [2,3-d]pyrimidine-2,4(1H,3H)-dione] | 3.6 |
| Cc1c(C(=O)N2CCC(O)CC2)sc2c1c(=O)n(CC(O)c1ccccc1)c(=O)n2CCC(F)(F)F (single isomer, unassigned) [Example 100, 3-(2-Hydroxy-2-phenylethyl)-6-[(4-hydroxypiperidin-1-yl)carbonyl]-5-methyl-1-(3,3,3-trifluoropropyl)thieno[2,3-d]pyrimidine-2,4(1H,3H)-dione] | 29 |
| CCCn1c(=O)c2c(C(F)F)c(C(=O)N3CCC(C)(O)CC3)sc2n(CCOC(F)(F)F)c1=O [Example 151, 5-(Difluoromethyl)-6-[(4-hydroxy-4-methylpiperidin-1-yl)carbonyl]-3-propyl-1-[2-(trifluoromethoxy)ethyl]thieno[2,3-d]pyrimidine-2,4(1H,3H)-dione] | 14 |
| Cc1c(C(=O)N2CCC(O)CC2)sc2c1c(=O)n(CCc1ccc(Cl)cc1)c(=O)n2CCC(F)(F)F [Example 13, 3-[2-(4-Chlorophenyl)ethyl]-6-[(4-hydroxypiperidin-1-yl)carbonyl]-5-methyl-1-(3,3,3-trifluoropropyl)thieno [2,3-d]pyrimidine-2,4(1H,3H)-dione] | 100 |
| COC(Cn1c(=O)c2c(C)c(C(=O)N3CCC(O)CC3)sc2n(CCC(F)(F)F)c1=O)c1ccccc1 (racemic) [Example 46, 6-[(4-Hydroxypiperidin-1-yl)carbonyl]-3-(2-methoxy-2-phenylethyl)-5-methyl-1-(3,3,3-trifluoropropyl)thieno[2,3-d]pyrimidine-2,4(1H,3H)-dione (racemate)] | 7.9 |
| COC(Cn1c(=O)c2c(C)c(C(=O)N3CCC(O)CC3)sc2n(CCC(F)(F)F)c1=O)C(F)(F)F (single isomer, unassigned) [Example 108, 6-[(4-Hydroxypiperidin-1-yl)carbonyl]-5-methyl-3-(3,3,3-trifluoro-2-methoxypropyl)-1-(3,3,3-trifluoropropyl)thieno[2,3-d]pyrimidine-2,4(1H,3H)-dione] | 580 |
| CCn1c(=O)c2c(C)c(C(=O)N3CCNC(=O)C3)sc2n(CCOC)c1=O [Example 37, 3-Ethyl-1-(2-methoxyethyl)-5-methyl-6-[(3-oxopiperazin-1-yl)carbonyl]thieno[2,3-d]pyrimidine-2,4(1H,3H)-dione] | 340 |
| COC(Cn1c(=O)c2c(C)c(C(=O)N3CCC(O)(CO)CC3)sc2n(CCC(F)(F)F)c1=O)C(F)(F)F (single isomer, unassigned) [Example 114, 6-{[4-Hydroxy-4-(hydroxymethyl)piperidin-1-yl]carbonyl}-5-methyl-3-(3,3,3-trifluoro-2-methoxypropyl)-1-(3,3,3-trifluoropropyl)thieno[2,3-d]pyrimidine-2,4(1H,3H)-dione] | 110 |
| COC(Cn1c(=O)c2c(C)c(C(=O)N3CCC(O)CC3)sc2n(CCC(F)(F)F)c1=O)C(F)(F)F (racemic) [Example 66, 6-[(4-Hydroxypiperidin-1-yl)carbonyl]-5-methyl-3-(3,3,3-trifluoro-2-methoxypropyl)-1-(3,3,3-trifluoropropyl)thieno[2,3-d]pyrimidine-2,4(1H,3H)-dione (racemate)] | 280 |
| Cc1c(C(=O)N2CCC(O)CC2)sc2c1c(=O)n(CC(F)c1ccccc1)c(=O)n2CCC(F)(F)F (single isomer, unassigned) [Example 103, 3-(2-Fluoro-2-phenylethyl)-6-[(4-hydroxypiperidin-1-yl)carbonyl]-5-methyl-1-(3,3,3-trifluoropropyl)thieno[2,3-d]pyrimidine-2,4(1H,3H)-dione] | 16 |
| Cc1c(C(=O)N2CCC(O)CC2)sc2c1c(=O)n(CC(F)(F)c1ccccc1)c(=O)n2CCC(F)(F)F [Example 51, 3-(2,2-Difluoro-2-phenylethyl)-6-[(4-hydroxypiperidin-1-yl)carbonyl]-5-methyl-1-(3,3,3-trifluoropropyl)thieno[2,3-d]pyrimidine-2,4(1H,3H)-dione] | 16 |
| CCn1c(=O)c2c(C(F)(F)F)c(C(=O)N3CCNC(=O)C3)sc2n(CCC(F)(F)F)c1=O [Example 42, 3-Ethyl-6-[(3-oxopiperazin-1-yl)carbonyl]-5-(trifluoromethyl)-1-(3,3,3-trifluoropropyl)thieno[2,3-d]pyrimidine-2,4(1H,3H)-dione] | 88 |
| Cc1c(C(=O)N2CCC(O)CC2)sc2c1c(=O)n(CCc1cnccn1)c(=O)n2CCC(F)(F)F [Example 17, 6-[(4-Hydroxypiperidin-1-yl)carbonyl]-5-methyl-3-[2-(pyrazin-2-yl)ethyl]-1-(3,3,3-trifluoropropyl)thieno[2,3-d]pyrimidine-2,4(1H,3H)-dione] | 350 |
| CC(C)Cn1c(=O)c2c(C(F)F)c(C(=O)N3CCC(O)CC3)sc2n(CCC(F)(F)F)c1=O [Example 139, 5-(Difluoromethyl)-6-[(4-hydroxypiperidin-1-yl)carbonyl]-3-isobutyl-1-(3,3,3-trifluoropropyl)thieno[2,3-d]pyrimidine-2,4(1H,3H)-dione] | 39 |
| Cc1c(C(=O)N2CCC(O)CC2)sc2c1c(=O)n(CC(c1ccccc1)C(F)(F)F)c(=O)n2CCC(F)(F)F (racemic) [Example 104, 6-[(4-Hydroxypiperidin-1-yl)carbonyl]-5-methyl-3-(3,3,3-trifluoro-2-phenylpropyl)-1-(3,3,3-trifluoropropyl)thieno[2,3-d]pyrimidine-2,4(1H,3H)-dione] | 9.1 |
| CCc1c(C(=O)N2CCC(O)CC2)sc2c1c(=O)n(CC)c(=O)n2CCC(F)(F)F [Example 87, 3,5-Diethyl-6-[(4-hydroxypiperidin-1-yl)carbonyl]-1-(3,3,3-trifluoropropyl)thieno[2,3-d]pyrimidine-2,4(1H,3H)-dione] | 26 |
| Cc1c(C(=O)N2CCC(O)CC2)sc2c1c(=O)n(CC(C)(O)c1ccccc1)c(=O)n2CCC(F)(F)F (single isomer, unassigned) [Example 132, 3-(2-Hydroxy-2-phenylpropyl)-6-[(4-hydroxypiperidin-1-yl)carbonyl]-5-methyl-1-(3,3,3-trifluoropropyl)thieno[2,3-d]pyrimidine-2,4(1H,3H)-dione] | 24 |
| CCn1c(=O)c2c(C)c(C(=O)N3CCC(O)C(C)C3)sc2n(CCC(F)(F)F)c1=O (stereo not drawn) [Example 73, 3-Ethyl-6-[(4-hydroxy-3-methylpiperidin-1-yl)carbonyl]-5-methyl-1-(3,3,3-trifluoropropyl)thieno [2,3-d]pyrimidine-2,4(1H,3H)-dione (enantiomer pair 1)] | 53 |
| Cc1c(C(=O)N2CCNC(=O)C2)sc2c1c(=O)n(CCc1ccccc1)c(=O)n2CCOC(F)(F)F [Example 129, 5-Methyl-6-[(3-oxopiperazin-1-yl)carbonyl]-3-(2-phenylethyl)-1-[2-(trifluoromethoxy)ethyl]thieno[2,3-d]pyrimidine-2,4(1H,3H)-dione] | 12 |
| CCn1c(=O)c2c(C)c(C(=O)N3CCC(O)CC3)sc2n(CCC=C(F)F)c1=O [Example 19, 1-(4,4-Difluorobut-3-en-1-yl)-3-ethyl-6-[(4-hydroxypiperidin-1-yl)carbonyl]-5-methylthieno[2,3-d]pyrimidine-2,4(1H,3H)-dione] | 92 |
| CCn1c(=O)c2c(C(F)F)c(C(=O)N3CCC(O)CC3)sc2n(CCC(F)(F)F)c1=O [Example 122, 5-(Difluoromethyl)-3-ethyl-6-[(4-hydroxypiperidin-1-yl)carbonyl]-1-(3,3,3-trifluoropropyl)thieno[2,3-d]pyrimidine-2,4(1H,3H)-dione] | 32 |
| Cc1c(C(=O)N2CCNC(=O)C2)sc2c1c(=O)n(CCc1ccccc1)c(=O)n2CCC=C(F)F [Example 27, 1-(4,4-Difluorobut-3-en-1-yl)-5-methyl-6-[(3-oxopiperazin-1-yl)carbonyl]-3-(2-phenylethyl)thieno[2,3-d]pyrimidine-2,4(1H,3H)-dione] | 41 |
| CCn1c(=O)c2c(C)c(C(=O)N3CCC(O)CC3)sc2n(CCOC(F)(F)F)c1=O [Example 56, 3-Ethyl-6-[(4-hydroxypiperidin-1-yl)carbonyl]-5-methyl-1-[2-(trifluoromethoxy)ethyl]thieno[2,3-d]pyrimidine-2,4(1H,3H)-dione] | 19 |
| COCCn1c(=O)n(CCc2ccccc2)c(=O)c2c(C)c(C(=O)N3CCC(O)CC3)sc21 [Example 3, 6-[(4-Hydroxypiperidin-1-yl)carbonyl]-1-(2-methoxyethyl)-5-methyl-3-(2-phenylethyl)thieno [2,3-d]pyrimidine-2,4(1H,3H)-dione] | 290 |
| COC(Cn1c(=O)c2c(C)c(C(=O)N3CCC(O)(CO)CC3)sc2n(CCC(F)(F)F)c1=O)C(F)(F)F (racemic) [Example 81, 6-{[4-Hydroxy-4-(hydroxymethyl)piperidin-1-yl]carbonyl}-5-methyl-3-(3,3,3-trifluoro-2-methoxypropyl)-1-(3,3,3-trifluoropropyl)thieno[2,3-d]pyrimidine-2,4(1H,3H)-dione] | 170 |
| CCn1c(=O)c2c(C(F)(F)F)c(C(=O)N3CCC(C)(O)CC3)sc2n(CCC(F)(F)F)c1=O [Example 82, 3-Ethyl-6-[(4-hydroxy-4-methylpiperidin-1-yl)carbonyl]-5-(trifluoromethyl)-1-(3,3,3-trifluoropropyl)thieno[2,3-d]pyrimidine-2,4(1H,3H)-dione] | 23 |
